# Tested on: 885512-296-R-J2-PDC complex spheroid growth, % test/control
# Experiment: Anticancer human tumor 885512-296-R-J2-PDC patient-derived breast carcinoma cell line growth inhibition [Asc]
# Settings: for IC50: curve of first compound; for viability, T/C: stronger effect = lower value
# Method in brief: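 Spheroid model: tumor line + HUVEC + hMSC. Single agents and combinations; top conc. at/near clinical Cmax (10 microM if undetermined), half-log dilutions. DMSO stocks at 800-fold test concentration.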
# [1] = second compound 0.01 µM, first compound 0.00949 µM
# [2] = second compound 0.01 µM, first compound 0.03 µM
# [3] = second compound 0.01 µM, first compound 0.0949 µM
# [4] = second compound 0.01 µM, first compound 0.3 µM
# [5] = second compound 0.01 µM, first compound 0.949 µM
# [6] = second compound 0.01 µM, first compound 3 µM
# [7] = second compound 0.0316 µM, first compound 0.00949 µM
# [8] = second compound 0.0316 µM, first compound 0.03 µM
# [9] = second compound 0.0316 µM, first compound 0.0949 µM
# [10] = second compound 0.0316 µM, first compound 0.3 µM
# [11] = second compound 0.0316 µM, first compound 0.949 µM
# [12] = second compound 0.0316 µM, first compound 3 µM
# [13] = second compound 0.1 µM, first compound 0.00949 µM
# [14] = second compound 0.1 µM, first compound 0.03 µM
# [15] = second compound 0.1 µM, first compound 0.0949 µM
# [16] = second compound 0.1 µM, first compound 0.3 µM
# [17] = second compound 0.1 µM, first compound 0.949 µM
# [18] = second compound 0.1 µM, first compound 3 µM
# [19] = second compound 0.316 µM, first compound 0.00949 µM
# [20] = second compound 0.316 µM, first compound 0.03 µM
# [21] = second compound 0.316 µM, first compound 0.0949 µM
# [22] = second compound 0.316 µM, first compound 0.3 µM
# [23] = second compound 0.316 µM, first compound 0.949 µM
# [24] = second compound 0.316 µM, first compound 3 µM
# [25] = second compound 1 µM, first compound 0.00949 µM
# [26] = second compound 1 µM, first compound 0.03 µM
# [27] = second compound 1 µM, first compound 0.0949 µM
# [28] = second compound 1 µM, first compound 0.3 µM
# [29] = second compound 1 µM, first compound 0.949 µM
# [30] = second compound 1 µM, first compound 3 µM
# 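Further: spheroids exposed to compounds for seven days.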
# 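Wherever viability, T/C is given: 100% = DMSO vehicle control wells.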
smiles,measurement,setting,value
C=CC(=O)N1CCN(c2nc(=O)n(-c3c(C)ccnc3C(C)C)c3nc(-c4c(O)cccc4F)c(F)cc23)C(C)C1 (stereo not given) + CNC(C)C(=O)NC1CN(S(=O)(=O)c2cccc(S(=O)(=O)N3CCC4CCC(C(=O)NC(c5ccccc5)c5ccccc5)N4C(=O)C(NC(=O)C(C)NC)C3)c2)CCC2CCC(C(=O)NC(c3ccccc3)c3ccccc3)N2C1=O,IC50,second compound 0.01 µM,> 10 µM
same,IC50,second compound 0.0316 µM,> 10 µM
same,IC50,second compound 0.1 µM,> 10 µM
same,IC50,second compound 0.316 µM,> 10 µM
same,IC50,second compound 1 µM,> 10 µM
same,"viability, T/C","second compound 0.01 µM, first compound 0.0316 µM",88.2%
same,"viability, T/C","second compound 0.01 µM, first compound 0.1 µM",80.9%
same,"viability, T/C","second compound 0.01 µM, first compound 0.316 µM",101%
same,"viability, T/C","second compound 0.01 µM, first compound 1 µM",81.3%
same,"viability, T/C","second compound 0.01 µM, first compound 3.16 µM",90.6%
same,"viability, T/C","second compound 0.01 µM, first compound 10 µM",64.2%
same,"viability, T/C","second compound 0.0316 µM, first compound 0.0316 µM",90.3%
same,"viability, T/C","second compound 0.0316 µM, first compound 0.1 µM",104%
same,"viability, T/C","second compound 0.0316 µM, first compound 0.316 µM",96.6%
same,"viability, T/C","second compound 0.0316 µM, first compound 1 µM",97.2%
same,"viability, T/C","second compound 0.0316 µM, first compound 3.16 µM",92.6%
same,"viability, T/C","second compound 0.0316 µM, first compound 10 µM",68.5%
same,"viability, T/C","second compound 0.1 µM, first compound 0.0316 µM",111%
same,"viability, T/C","second compound 0.1 µM, first compound 0.1 µM",109%
same,"viability, T/C","second compound 0.1 µM, first compound 0.316 µM",98%
same,"viability, T/C","second compound 0.1 µM, first compound 1 µM",98.6%
same,"viability, T/C","second compound 0.1 µM, first compound 3.16 µM",87.7%
same,"viability, T/C","second compound 0.1 µM, first compound 10 µM",66.8%
same,"viability, T/C","second compound 0.316 µM, first compound 0.0316 µM",104%
same,"viability, T/C","second compound 0.316 µM, first compound 0.1 µM",106%
same,"viability, T/C","second compound 0.316 µM, first compound 0.316 µM",98.8%
same,"viability, T/C","second compound 0.316 µM, first compound 1 µM",100%
same,"viability, T/C","second compound 0.316 µM, first compound 3.16 µM",84.4%
same,"viability, T/C","second compound 0.316 µM, first compound 10 µM",68.6%
same,"viability, T/C","second compound 1 µM, first compound 0.0316 µM",105%
same,"viability, T/C","second compound 1 µM, first compound 0.1 µM",103%
same,"viability, T/C","second compound 1 µM, first compound 0.316 µM",104%
same,"viability, T/C","second compound 1 µM, first compound 1 µM",109%
same,"viability, T/C","second compound 1 µM, first compound 3.16 µM",79.2%
same,"viability, T/C","second compound 1 µM, first compound 10 µM",59%
CCN1C(C(=O)NC23CCC(C(=O)O)(CC2)CC3)C(c2cccc(Cl)c2F)C2(C(=O)Nc3cc(Cl)ccc32)C12CCCCC2 (stereo not given) + CNC(C)C(=O)NC1CN(S(=O)(=O)c2cccc(S(=O)(=O)N3CCC4CCC(C(=O)NC(c5ccccc5)c5ccccc5)N4C(=O)C(NC(=O)C(C)NC)C3)c2)CCC2CCC(C(=O)NC(c3ccccc3)c3ccccc3)N2C1=O,IC50,second compound 0.01 µM,> 3 µM
same,IC50,second compound 0.0316 µM,2.97 µM
same,IC50,second compound 0.1 µM,> 3 µM
same,IC50,second compound 0.316 µM,> 3 µM
same,IC50,second compound 1 µM,> 3 µM
same,"viability, T/C",[1],85.2%
same,"viability, T/C",[2],77.7%
same,"viability, T/C",[3],87%
same,"viability, T/C",[4],84%
same,"viability, T/C",[5],67%
same,"viability, T/C",[6],53.5%
same,"viability, T/C",[7],103%
same,"viability, T/C",[8],98.3%
same,"viability, T/C",[9],88.7%
same,"viability, T/C",[10],97.2%
same,"viability, T/C",[11],84.7%
same,"viability, T/C",[12],49.4%
same,"viability, T/C",[13],98.7%
same,"viability, T/C",[14],107%
same,"viability, T/C",[15],108%
same,"viability, T/C",[16],104%
same,"viability, T/C",[17],77.2%
same,"viability, T/C",[18],51.7%
same,"viability, T/C",[19],104%
same,"viability, T/C",[20],103%
same,"viability, T/C",[21],111%
same,"viability, T/C",[22],97.9%
same,"viability, T/C",[23],86%
same,"viability, T/C",[24],57.8%
same,"viability, T/C",[25],104%
same,"viability, T/C",[26],118%
same,"viability, T/C",[27],111%
same,"viability, T/C",[28],101%
same,"viability, T/C",[29],90%
same,"viability, T/C",[30],60.3%
Cc1nc(N2CCC3(CC2)COC(C)C3N)c(CO)nc1Sc1ccnc(N)c1Cl (stereo not given) + CNC(C)C(=O)NC1CN(S(=O)(=O)c2cccc(S(=O)(=O)N3CCC4CCC(C(=O)NC(c5ccccc5)c5ccccc5)N4C(=O)C(NC(=O)C(C)NC)C3)c2)CCC2CCC(C(=O)NC(c3ccccc3)c3ccccc3)N2C1=O,IC50,second compound 0.01 µM,0.168 µM
same,IC50,second compound 0.0316 µM,0.237 µM
same,IC50,second compound 0.1 µM,0.201 µM
same,IC50,second compound 0.316 µM,0.277 µM
same,IC50,second compound 1 µM,0.27 µM
same,"viability, T/C",[1],90.9%
same,"viability, T/C",[2],73.2%
same,"viability, T/C",[3],54%
same,"viability, T/C",[4],45.3%
same,"viability, T/C",[5],43.4%
same,"viability, T/C",[6],38.7%
same,"viability, T/C",[7],90.1%
same,"viability, T/C",[8],77%
same,"viability, T/C",[9],59.3%
same,"viability, T/C",[10],47.3%
same,"viability, T/C",[11],43.1%
same,"viability, T/C",[12],39.5%
same,"viability, T/C",[13],102%
same,"viability, T/C",[14],91.7%
same,"viability, T/C",[15],60.1%
same,"viability, T/C",[16],46.3%
same,"viability, T/C",[17],39.9%
same,"viability, T/C",[18],39.9%
same,"viability, T/C",[19],120%
same,"viability, T/C",[20],107%
same,"viability, T/C",[21],70.3%
same,"viability, T/C",[22],50.4%
same,"viability, T/C",[23],41.8%
same,"viability, T/C",[24],38.9%
same,"viability, T/C",[25],114%
same,"viability, T/C",[26],112%
same,"viability, T/C",[27],71.8%
same,"viability, T/C",[28],52.7%
same,"viability, T/C",[29],41.1%
same,"viability, T/C",[30],38.7%
